# Measurements from patent EP4438596A1, “DIAMINOPYRIMIDINE DERIVATIVES AS HDAC AND DHFR DUAL-TARGETING INHIBITORS AND USE THEREOF IN PREVENTING AND TREATING MALARIA” (Université de Lille, priority 2023, dated 2024).
# Counter-ions that a name gives are not always drawn. Like-named read-outs stand apart in the source and are kept apart here.
# Legend:
# [1] = system: P. falciparum 3D7-infected erythrocytes; assay: Plasmodium falciparum growth inhibition assay (SYBR Green I, flow cytometry), drug-sensitive strain; assay type: cell-based
# Method: (§1) Plates were incubated under standard P. falciparum culture conditions for 48 h. […] Fixed parasitized red blood cells (RBC) were stored at 4 °C in the dark until flow cytometry analysis. Parasite growth was assessed by flow cytometry on a BD FACS Cantoll (BD Biosciences) or a Attune™ NxT Flow Cytometer (Invitrogen). Cell doublets were excluded from the analysis using a forward scatter (FSC)-width versus FSC-area dot plot. Infected and uninfected erythrocytes were gated on the basis of their FSC and side scatter (SSC) signals. Fluorescence analysis (Green fluorescence FITC) was performed using BD FACSDiva software (BD Biosciences) on a total of 200,000 acquired events. […] Fluorescence of non-infected RBC was adjusted to plot between 10° and 10^2. Results are expressed as the percentage of growth inhibition.
# (§2) All IC50 values were calculated using log-linear interpolation (www.antimalarial-icestimator.net), with mean values (± SD) determined over at least two independent experiments.
# [2] = system: P. berghei ANKA parasites; assay: Peters 4-day suppressive test, oral efficacy in P. berghei-infected mice; assay type: in vivo, Plasmodium berghei
# Method: Compounds powder was dissolved in DMSO and sonicated for 10 min. Appropriate volume of 50%W/v HPβCD was added dropwise under gentle swirling. After 10 min sonication, DPBS was added dropwise under gentle swirling and the mixture was sonicated again for 10 min. After checking the pH (5.5 - 7), the solution was filtered (0.22µm) and conserved at room temperature for max 2 days. Final concentration of compounds was 2.5 mg/mL, 1 mg/mL or 0.1 mg/mL for mice treatment with 25 mg/kg, 10 mg/kg or 1mg/kg doses.
# 10 weeks-old Balb/C male mice were purchased from Janvier Labs.
# P. berghei ANKA parasites stabilates conserved in liquid nitrogen were thawed and injected intraperitoneally (ip) into 2-3 mice (10^6 infected red blood cells (RBC) / mouse). When parasitemia reached 3-5%, mice were bled and groups of six BALB/c male mice were infected with 10^6 P. berghei ANKA parasites (day 0), and treated per os (p.o.) twice a day on days 0, 1, 2 and 3. […] On day 4 post infection (p.i.), the peripheral blood parasitemia of all mice was evaluated via microscopic examination of Giemsa-stained thin blood smears. Parasitemia was then followed for two weeks.
# [3] = system: multidrug-resistant P. falciparum line Dd2; assay: Plasmodium falciparum growth inhibition assay (SYBR Green I, flow cytometry), multidrug-resistant line; assay type: cell-based; details: Plasmodium falciparum, DD2, 48 h, line resistant to CQ, PYR and mefloquine, mean ± SD, n ≥ 2, read-out: PfDd2 IC50
# Method: as §1, §2
# [4] = Plasmodium falciparum, 3D7, Erythrocyte, 48 h incubation, mean ± SD, n ≥ 2, read-out: Pf3D7 IC50
# [5] = Plasmodium falciparum, 3D7, Erythrocyte, 48 h incubation, read-out: IC50 (Pf3D7)
# [6] = Experiment 3, Balb/C mice, 1 mg/kg p.o. twice a day on days 0-3, day 4 p.i.
# [7] = Experiment 3, Balb/C mice, 1 mg/kg p.o. twice a day on days 0-3, day 5 p.i.
# [8] = Experiment 3, Balb/C mice, 1 mg/kg p.o. twice a day on days 0-3, day 6 p.i.
# [9] = Experiment 3, Balb/C mice, 1 mg/kg p.o. twice a day on days 0-3, day 7 p.i.
# [10] = Experiment 3, Balb/C mice, 1 mg/kg p.o. twice a day on days 0-3, day 8 p.i.
# [11] = Experiment 3, Balb/C mice, 1 mg/kg p.o. twice a day on days 0-3, day 10 p.i.
# [12] = Plasmodium falciparum, 3D7, Erythrocyte, 48 h, read-out: Pf3D7 IC50
molecule,measurement,setting,value
"CCc1nc(N)nc(N)c1OCCCOc1ccccc1CCC(=O)NO.Cl [1·HCl, 3-(2-[3-(2,4-Diamino-6-ethylpyrimidin-5-yloxy)propoxy]phenyl)-N-hydroxypropanamide hydrochloride]",IC50,[1]; [4],0.17 ± 0.018 nM
same,IC50,[1]; [5],< 0.2 nM
same,activity in vivo against Plasmodium berghei,"[2]; Experiment 1 (Fig. 1), Balb/C mice, 10mg/kg and 25mg/kg orally twice a day on days 0,1,2,3",active in vivo
same,parasites in treated mice,"[2]; Experiment 3, 1 mg/kg p.o. twice a day on days 0-3, day 4 p.i.",undetectable
same,number of mice showing blood parasites,[2]; [6],0/6
same,parasitemia (mean ± sd),[2]; [6],0%
same,number of mice showing blood parasites,[2]; [7],1/6
same,parasitemia (mean ± sd),[2]; [7],"0,07 ± 0,16%"
same,number of mice showing blood parasites,[2]; [8],1/6
same,parasitemia (mean ± sd),[2]; [8],"0,15 ± 0,37%"
same,number of mice showing blood parasites,[2]; [9],1/6
same,parasitemia (mean ± sd),[2]; [9],"0,31 ± 0,76%"
same,number of mice showing blood parasites,[2]; [10],1/6
same,parasitemia (mean ± sd),[2]; [10],"1,31 ± 3,21%"
same,number of mice showing blood parasites,[2]; [11],1/6
same,parasitemia (mean ± sd),[2]; [11],"0,7 ± 1,72%"
same,parasites in treated mice,"[2]; Experiments 1 and 2, 10 mg/kg p.o. twice a day on days 0-3, day 4 p.i.",undetectable
same,"parasites in treated mice, follow-up","[2]; Experiments 1 and 2, 10 mg/kg p.o. twice a day on days 0-3, until the end of the experiments",remained undetectable
same,parasite clearance after oral administration,"[2]; oral route, 10 mg/kg",achieved parasite clearance
same,IC50,[3],19.8 ± 0.9 nM
"CCc1nc(N)nc(N)c1OCCCCOc1ccccc1CCC(=O)NO [3·HCl, 3-(2-[4-(2,4-Diamino-6-ethylpyrimidin-5-yloxy)butoxy]phenyl)-N-hydroxypropanamide hydrochloride]",IC50,[1]; [4],0.451 ± 0.088 nM
"CCc1nc(N)nc(N)c1OCCCOc1cc(OC)ccc1CCC(=O)NO [4·HCl, 3-(2-[3-(2,4-Diamino-6-ethylpyrimidin-5-yloxy)propoxy]-4-methoxyphenyl)-N-hydroxypropanamide hydrochloride]",IC50,[1]; [4],0.173 ± 0.122 nM
same,IC50,[1]; [5],< 0.2 nM
same,IC50,[3],6.2 ± 0.5 nM
"CCc1nc(N)nc(N)c1OCCCOc1cc(Cl)ccc1CCC(=O)NO [5·HCl, 3-(4-Chloro-2-[3-(2,4-diamino-6-ethylpyrimidin-5-yloxy)propoxy]phenyi)-N-hydroxypropanamide hydrochloride]",IC50,[1]; [12],0.279 ± 0.154 nM
"CCc1nc(N)nc(N)c1OCCCOc1cc(OC)ccc1/C=C/C(=O)NO [14·HCl, (E)-3-{2-[3-(2,4-Diamino-6-ethylpyrimidin-5-yloxy)propoxy]-4-methoxyphenyl}-N-hydroxyacrylamide hydrochloride]",IC50,[1]; [4],0.088 ± 0.02 nM
same,IC50,[1]; [5],< 0.1 nM
"CCc1nc(N)nc(N)c1OCCOc1cccc(/C=C/C(=O)NO)c1 [18·HCl, (E)-3-(3-[2-(2,4-Diamino-6-ethylpyrimidin-5-yloxy)ethoxy]phenyl)-N-hydroxyacrylamide hydrochloride]",IC50,[1]; [4],0.249 ± 0.015 nM
"CCc1nc(N)nc(N)c1OCCCOc1cccc(/C=C/C(=O)NO)c1 [19·HCl, (E)-3-{3-[3-(2,4-Diamino-6-ethylpyrimidin-5-yloxy)propoxy]phenyl}-N-hydroxyacrylamide hydrochloride]",IC50,[1]; [4],0.173 ± 0.021 nM
same,IC50,[1]; [5],< 0.2 nM
same,IC50,[3],41.5 ± 11.9 nM
"CCc1nc(N)nc(N)c1OCCCOc1ccc(/C=C/C(=O)NO)cc1 [20·HCl, (E)-3-{4-[3-(2,4-Diamino-6-ethylpyrimidin-5-yloxy)propoxy]phenyl}-N-hydroxyacrylamide hydrochloride]",IC50,[1]; [4],0.117 ± 0.045 nM
same,IC50,[1]; [5],< 0.2 nM
"CCN(CC)CCCC(C)Nc1ccnc2cc(Cl)ccc12 (centres unmarked) [CQ, chloroquine, reference compound]",IC50,[1]; [12],4.7 ± 1.7 nM
same,parasitemia (mean ± sd),"[2]; Experiment 3, positive control, 10 mg/kg p.o. once a day for 4 days, day 4 p.i.",0%
same,parasitemia (mean ± sd),"[2]; Experiment 3, positive control, 10 mg/kg p.o. once a day for 4 days, day 5 p.i.",0%
same,parasitemia (mean ± sd),"[2]; Experiment 3, positive control, 10 mg/kg p.o. once a day for 4 days, day 6 p.i.",0%
same,parasitemia (mean ± sd),"[2]; Experiment 3, positive control, 10 mg/kg p.o. once a day for 4 days, day 7 p.i.",0%
same,parasitemia (mean ± sd),"[2]; Experiment 3, positive control, 10 mg/kg p.o. once a day for 4 days, day 8 p.i.",0%
same,parasitemia (mean ± sd),"[2]; Experiment 3, positive control, 10 mg/kg p.o. once a day for 4 days, day 10 p.i.",0%
"CCc1nc(N)nc(N)c1OCCCOc1ccccc1CCC(=O)NOCc1ccccc1 [Compound 7, N-(Benzyloxy)-3-(2-(3-(2,4-diamino-6-ethylpyrimidin-5-yloxy)propoxy)phenyl)propanamide]",IC50,[1]; [4],0.497 ± 0.055 nM
"CCc1nc(N)nc(N)c1OCCCOc1cc(C(=O)NO)ccc1Cl [Compound 9, 4-Chloro-3-[3-(2,4-diamino-6-ethylpyrimidin-5-yloxy)propoxy]-N-hydroxybenzamide]",IC50,[1]; [4],0.172 ± 0.027 nM
same,IC50,[1]; [5],< 0.2 nM
same,IC50,[3],16.9 ± 3.2 nM
"CCc1nc(N)nc(N)c1OCCCOc1cc(C(=O)NO)ccc1F [Compound 10, 3-(3-[2,4-Diamino-6-ethylpyrimidin-5-yloxy)propoxy]-4-fluoro-N-hydroxybenzamide]",IC50,[1]; [4],0.39 ± 0.012 nM
"CCc1nc(N)nc(N)c1OCCCOc1cccc(C(=O)NOCc2ccc(OC(C)=O)cc2)c1 [Compound 11, N-(4-Acetoxybenzyloxy)-3-[3-(2,4-diamino-6-ethylpyrimidin-5-yloxy)propoxy]benzamide]",IC50,[1]; [4],1.02 ± 0.68 nM
same,IC50,[1]; [5],< 0.2 nM
same,ranking of activity against P. berghei infection,"[2]; Experiment 3, 1 mg/kg p.o. twice a day on days 0-3",most active
"CCc1nc(N)nc(N)c1OCCCOc1cc(Cl)ccc1/C=C/C(=O)NO [Compound 15, (E)-3-{4-Chloro-2-[3-(2,4-diamino-6-ethylpyrimidin-5-yloxy)propoxy]phenyl}-N-hydroxyacrylamide]",IC50,[1]; [4],0.082 ± 0.007 nM
same,IC50,[1]; [5],< 0.1 nM
same,IC50,[3],4 ± 0.4 nM
"CCc1nc(N)nc(N)c1OCCCOc1ccccc1/C=C/C(=O)NOCc1ccc(OC(C)=O)cc1 [Compound 16, (E)-N-(4-Acetoxybenzyloxy)-3-{2-[3-(2,4-diamino-6-ethylpyrimidin-5-yloxy)propoxy]phenyl}acrylamide]",IC50,[1]; [4],0.067 ± 0.005 nM
same,IC50,[1]; [5],< 0.1 nM
same,number of mice showing blood parasites,[2]; [6],1/5
same,parasitemia (mean ± sd),"[2]; Experiment 3, Balb/C mice, 1 mg/kg p.o. twice a day on days 0-3, day 4 p.i., 1 mg/kg","0,02 ± 0,04%"
same,number of mice showing blood parasites,[2]; [7],2/5
same,parasitemia (mean ± sd),[2]; [7],"0,48 ± 0,72%"
same,number of mice showing blood parasites,[2]; [8],3/5
same,parasitemia (mean ± sd),[2]; [8],"2,22 ± 2,44%"
same,number of mice showing blood parasites,[2]; [9],3/5
same,parasitemia (mean ± sd),[2]; [9],"5,21 ± 7,86%"
same,number of mice showing blood parasites,[2]; [10],5/5
same,parasitemia (mean ± sd),[2]; [10],"5,33 ± 5,64%"
same,number of mice showing blood parasites,[2]; [11],5/5
same,parasitemia (mean ± sd),[2]; [11],"9,25 ± 7,38%"
"CCc1nc(N)nc(N)c1OCCCOc1ccccc1/C=C/C(=O)NOCc1ccccc1 [Compound 17, (E)-N-(Benzyloxy)-3-{2-[3-(2,4-diamino-6-ethylpyrimidin-5-yloxy)propoxy]phenyl}acrylamide]",IC50,[1]; [4],0.331 ± 0.124 nM
"CCc1nc(N)nc(N)c1OCCCOc1cccc(COc2cccc(/C=C/C(=O)NO)c2)c1 [Compound 21, (E)-3-(3-(3-[3-(2,4-Diamino-6-ethylpyrimidin-5-yloxy)propoxy]benzyloxy)phenyl)-N-hydroxyacrylamide hydrochloride]",IC50,[1]; [4],0.347 ± 0.047 nM
"CCc1nc(N)nc(N)c1OCCCOc1cccc(C(=O)NCCCCCCC(=O)NO)c1 [Compound 30, 3-{3-[(2,4-Diamino-6-ethylpyrimidin-5-yl)oxy]propoxy}-N-[7-(hydroxyamino)-7-oxoheptyl]benzamide]",IC50,[1]; [4],0.876 ± 0.018 nM
"CCc1nc(N)nc(N)c1OCCCOc1ccc(C(=O)NCCCCCCC(=O)NO)cc1 [Compound 31, 4-{3-[(2,4-Diamino-6-ethylpyrimidin-5-yl)oxy]propoxy}-N-[7-(hydroxyamino)-7-oxoheptyl]benzamide]",IC50,[1]; [4],0.404 ± 0.136 nM
same,IC50,[3],22.8 ± 2.6 nM
"N-(4-Acetoxybenzyloxy)-3-(2-(3-(2,4-diamino-6-ethylpyrimidin-5-yloxy)propoxy)phenyl)propenamide [Compound 6]",IC50,"[1]; 48 h incubation, mean ± SD, n ≥ 2, read-out: Pf3D7 IC50",0.169 ± 0.041 nM
